Reference: article PMC7665192, “A natriuretic peptide from Arabidopsis thaliana (AtPNP-A) can modulate catalase 2 activity” (Scientific Reports, 2020)
Positions of bridges follow the written chain, without caps; N, C: chain ends. Residues, ends and D or L forms follow the SMILES beside them. *: point of attachment. Biotin = O=C1N[C@H]2[C@H](CS[C@H]2CCCCC(=O)*)N1

Columns and labels:
[1] = test system: A. thaliana (Col-0) mesophyll cell protoplasts; experiment: Mesophyll cell protoplast swelling (volume); type: cell-based, Arabidopsis thaliana; conditions: 100 nM peptide or 1 μg mL^−1 rAtPNP-A, 0.4 M mannitol, 20 min, room temperature, n = 50, P < 0.0001
From the text: Peptides containing amino acid sequence of the active region of AtPNP-A and corresponding scrambled peptides, having the same amino acid composition but in a randomized order (Fig. 1a), with or without C-terminal biotin tag, were synthesized by GenScript (Piscataway, USA) at the purity level > 95% verified with HPLC and their biological activity was verified as described previously.
Figure 1 Biologically active peptide containing the active region of AtPNP-A protein binds to CAT2. (a) Domain organization of AtPNP-A and the amino acid sequences of C-terminally biotinylated peptides used in affinity chromatography-based experiments—a peptide containing the active site of AtPNP-A (indicated as pAtPNP-A) or the corresponding scrambled peptide (indicated as pScr). Cysteine residues forming a disulfide bond, characteristic to natriuretic peptide (NP)-like molecules, are underlined. SP, signal peptide. (b) Assaying biological activity of the AtPNP-A peptide (pAtPNP-A) and purified recombinant protein (rAtPNP-A). […] In each treatment, 50 randomly selected protoplasts with diameter > 20 µm were included in quantitative analysis (scale bar = 20 µm). Protoplast volume was measured and the data obtained from an exemplar experiment are plotted. […]

leaf discs of WT plants = experiment: Oxidative burst (ROS) in leaf discs; parameters: species or system Arabidopsis thaliana; conditions: leaf discs pre-treated with 100 nM rAtPNP-A for 30 min, then 1 μM flg22, luminol luminescence, 1 h, n = 11–12, P < 0.01
Description: Leaf discs (0.196 cm[2]) of 4-week-old WT plants were incubated overnight floating on 0.1 mL water in 96-well titer plate, with one disc per well. The following day the leaf discs were pre-treated with 100 nM rAtPNP-A or mock for 30 min. For ROS detection horseradish peroxidase and luminol (Sigma-Aldrich) were added to a final concentration of 10 μg mL^−1 and 100 μM, respectively. Luminescence was measured directly after addition of either 1 μM of flg22 or 100 nM rAtPNP-A in a MicroLumat LB96P plate reader (Berthold Technologies) for 1 h and is shown in relative light units.
Supplementary Figure S2. AtPNP-A participates in plant immunity.
Kinetics of ROS production after treatment of leaf discs with 1 μM flg22 with or without pre-treatment with 100 nM recombinant AtPNP-A (rAtPNP-A), or after treatment with rAtPNP-A only. Data are shown as mean ± SEM (two-way repeated measure ANOVA followed by Tukey’s multiple comparison test, n = 11 – 12, * P < 0.01). Total production of ROS during 60 min after treatment with rAtPNP-A, flg22, or flg22 and rAtPNP-A pre-treatment is shown as median ± SD (one-way ANOVA and Tukey-Kramer multiple comparison test, n = 11 – 12, P < 0.01) with statistically significant differences indicated by different letters.
(1 picture or pasted object on this page, not shown here)

Expr, expansin-like B1 = experiment: Yeast two-hybrid (Y2H) screen; type: binding, A. thaliana; conditions: bait AtPNP-A amino acids 26–130, prey At4g17030.1
Description: (§1) The Y2H screen using AtPNP-A as bait was carried out by Dualsystems Biotech AG (Zurich, Switzerland). The bait construct for the screening was made by subcloning the cDNA fragment encoding exported portion of AtPNP-A (amino acids 26 to 130) (Fig. 1a) into the pLexA-DIR vector (Dualsystems Biotech AG). The bait construct was transformed into the strain NMY32 (MATa his3Δ200 trp1-901 leu2-3,112 (lexAop)8-ADE2 LYS2::(lexAop)4-HIS3 URA3::(lexAop)8-lacZ GAL4) using standard procedures. Correct expression of the bait was verified by western blotting of cell extracts using a mouse monoclonal antibody directed against the LexA domain (Dualsystems Biotech AG). The absence of self-activation was verified by co-transformation of the bait together with a control prey and selection on minimal medium lacking tryptophan, leucine, and histidine (selective medium). For the Y2H screen, the bait was co-transformed together with a normalized A. thaliana universal P02403 cDNA library (Dualsystems Biotech AG) into NMY32. 3.1 × 10^6 transformants were screened, yielding 96 transformants that grew on selective medium. […] Library plasmids were isolated from positive clones. The identity of positive interactants was determined by sequencing. DNA sequences translated in all three reading frames and searching against the SwissProt database using the BLASTX algorithm (https://blast.ncbi.nlm.nih.gov).

RCA, rubisco activase = experiment: Yeast two-hybrid (Y2H) screen; type: binding, A. thaliana; conditions: bait AtPNP-A amino acids 26–130, prey At2g39730.1
Description: as §1

Unknown protein = experiment: Yeast two-hybrid (Y2H) screen; type: binding, A. thaliana; conditions: bait AtPNP-A amino acids 26–130, prey At5g39570.1
Description: as §1

[2] = test system: ERP/AP2, ethylene response factor; experiment: Yeast two-hybrid (Y2H) screen; type: binding, A. thaliana; conditions: bait AtPNP-A amino acids 26–130, prey At5g07580.1
Description: as §1

[3] = test system: PGR1, photosynthetic electron transfer C; experiment: Yeast two-hybrid (Y2H) screen; type: binding, A. thaliana; conditions: bait AtPNP-A amino acids 26–130, prey At4g03280.1
Description: as §1

[4] = test system: CRF6, cytokinin response factor 6; experiment: Yeast two-hybrid (Y2H) screen; type: binding, A. thaliana; conditions: bait AtPNP-A amino acids 26–130, prey At3g61630.1
Description: as §1

PLL4, poltergeist like 4 = experiment: Yeast two-hybrid (Y2H) screen; type: binding, A. thaliana; conditions: bait AtPNP-A amino acids 26–130, prey At2g28890.1
Description: as §1

[5] = test system: CLA, 1-deoxy-D-xylulose-5-phosphate synthase; experiment: Yeast two-hybrid (Y2H) screen; type: binding, A. thaliana; conditions: bait AtPNP-A amino acids 26–130, prey At4g15560.1
Description: as §1

FED A, ferredoxin 2 = experiment: Yeast two-hybrid (Y2H) screen; type: binding, A. thaliana; conditions: bait AtPNP-A amino acids 26–130, prey At1g60950.1
Description: as §1

[6] = test system: ERF7, ethylene response factor 7; experiment: Yeast two-hybrid (Y2H) screen; type: binding, A. thaliana; conditions: bait AtPNP-A amino acids 26–130, prey At3g20310.1
Description: as §1

[7] = test system: SHA1, shoot apical meristem arrest 1; experiment: Yeast two-hybrid (Y2H) screen; type: binding, A. thaliana; conditions: bait AtPNP-A amino acids 26–130, prey At5g63780.1
Description: as §1

In the case of `CC(C)C[C@@H]1NC(=O)[C@H](CC(N)=O)NC(=O)[C@H](CC(N)=O)NC(=O)[C@H](CCCCN)NC(=O)[C@H](C(C)C)NC(=O)CNC(=O)[C@H](C(C)C)NC(=O)[C@H](C(C)C)NC(=O)[C@H](CC(C)C)NC(=O)[C@H]([C@@H](C)O)NC(=O)[C@H](CCC(=O)O)NC(=O)[C@H](CCCNC(=N)N)NC(=O)[C@H](CCC(N)=O)NC(=O)[C@H]([C@@H](C)O)NC(=O)CNC(=O)[C@H](Cc2ccc(O)cc2)NC(=O)[C@@H](NC(=O)[C@H](C)NC(=O)[C@H](CO)NC(=O)[C@H](CCCNC(=N)N)NC(=O)[C@@H](NC(=O)[C@H](Cc2ccc(O)cc2)NC(=O)[C@@H]2CCCN2)[C@@H](C)O)CSSC[C@@H](C(=O)NCC(=O)N[C@@H](CCCNC(=N)N)C(=O)N[C@@H](CCCNC(=N)N)C(=O)N[C@@H](Cc2ccc(O)cc2)C(=O)N[C@@H](CCCNC(=N)N)C(=O)N[C@H](C(=O)N[C@@H](CCCNC(=N)N)C(=O)N[C@@H](CCCCNC(=O)CCCC[C@@H]2SC[C@@H]3NC(=O)N[C@@H]32)C(=O)O)C(C)C)NC(=O)[C@H](C)NC(=O)[C@H](CCCNC(=N)N)NC(=O)CNC(=O)[C@H](CC(N)=O)NC(=O)[C@H](CCC(N)=O)NC(=O)[C@H](Cc2c[nH]c3ccccc23)NC1=O` [pAtPNP-A] (H-PYTRSACYGTQRETLVVGVKNNLWQNGRACGRRYRVRK(Biotin)-OH; disulfide 7-30; N-terminus and C-terminus assumed), the “Protoplast swelling response (volume)” value [1] is reported as “significantly greater than the response elicited by the scrambled peptide (pScr)”.

For “AtPNP-A: An A. thaliana PNP, termed AtPNP-A (At2g18660; Q9ZV52)”, the “Effect on flg22-induced oxidative burst” value (leaf discs of WT plants) was “enhanced flg22-induced oxidative burst”, the “Effect on flg22-induced oxidative burst” value (leaf discs of WT plants; listed as AtPNP) was “enhances responses to flg22” and the “Effect on flg22-induced oxidative burst” value (leaf discs of WT plants; listed as PNP) was “enhances oxidative burst”. For the same compound, the Strength of binding (Expr, expansin-like B1) was “Weak”, the Strength of binding (RCA, rubisco activase) was “Strong” and the Strength of binding (Unknown protein) was “Weak”. The Strength of binding [2] was “Strong”, the Strength of binding [3] was “Weak” and the Strength of binding [4] was “Weak”. The Strength of binding (PLL4, poltergeist like 4) was “Strong”, the Strength of binding [5] was “Weak” and the Strength of binding (FED A, ferredoxin 2) was “Weak”. For the same compound, the Strength of binding [6] was “Strong” and the Strength of binding [7] was “Strong”.
